Source: patent US12466834B2, “Imidazodiazepinediones and methods of use thereof” (GFB (ABC), LLC, priority 2018, dated 2025)

How the values were obtained:
human TRPC5 [1] = molecular target: T1, human TRPC5 (Homo sapiens, UniProt Q9UL62); experiment: FLIPR calcium assay, inhibition of riluzole-activated TRPC5 calcium response; assay type: cell-based; conditions: ICLN-1633 cells; riluzole 30 μM stimulation; Fluo-4 calcium response; read-out: Inhibitor Potency Range (FLIPR)
T1 construct: expressed in transfected cells
T1 sequence (Q9UL62 1-973): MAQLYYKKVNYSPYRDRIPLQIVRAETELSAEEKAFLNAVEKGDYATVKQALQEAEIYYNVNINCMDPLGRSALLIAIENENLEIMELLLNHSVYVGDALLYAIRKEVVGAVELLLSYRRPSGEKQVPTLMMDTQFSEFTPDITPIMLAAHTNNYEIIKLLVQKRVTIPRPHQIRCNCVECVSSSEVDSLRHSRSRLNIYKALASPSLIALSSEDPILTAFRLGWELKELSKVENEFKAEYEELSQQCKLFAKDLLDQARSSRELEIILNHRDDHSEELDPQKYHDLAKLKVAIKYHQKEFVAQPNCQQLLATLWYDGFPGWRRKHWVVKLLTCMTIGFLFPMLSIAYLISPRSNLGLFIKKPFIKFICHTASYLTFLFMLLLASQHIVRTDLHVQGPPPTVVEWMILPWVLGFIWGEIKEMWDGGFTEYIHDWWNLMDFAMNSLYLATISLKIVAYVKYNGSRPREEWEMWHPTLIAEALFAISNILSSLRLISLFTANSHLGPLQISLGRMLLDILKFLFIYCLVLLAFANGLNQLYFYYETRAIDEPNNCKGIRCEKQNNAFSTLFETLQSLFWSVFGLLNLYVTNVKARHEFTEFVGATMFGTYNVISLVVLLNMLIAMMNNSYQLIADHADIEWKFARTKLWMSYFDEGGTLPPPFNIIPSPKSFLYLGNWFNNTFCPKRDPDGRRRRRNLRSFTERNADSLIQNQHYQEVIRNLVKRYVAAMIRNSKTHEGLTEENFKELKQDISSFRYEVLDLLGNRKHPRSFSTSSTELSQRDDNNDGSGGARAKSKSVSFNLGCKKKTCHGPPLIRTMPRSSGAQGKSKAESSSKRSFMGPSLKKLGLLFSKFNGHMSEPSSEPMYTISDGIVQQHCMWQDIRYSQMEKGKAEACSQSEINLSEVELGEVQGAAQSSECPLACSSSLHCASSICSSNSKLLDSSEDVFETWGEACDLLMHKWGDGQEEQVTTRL
Procedure: (§1) ICLN-1633 cells (HEK-TREx hTRPC5) expressing TRPC5 were generated as follows. Commercially available HekTrex-293 cells were seeded at 0.7×10^6 cells/well in a 1×6-well plate 24 hrs prior to transfection using 2 mL cell growth media containing no antibiotics (1× DMEM/high glucose (Hyclone #SH30022.02); 10% fetal bovine serum (Sigma) 2 mM sodium pyruvate, 10 mM HEPES). The human TRPC5 coding sequence (NM_012471 with a silent T478C mutation) was cloned into pcDNA5/TO (Invitrogen; Cat No. V103320) using hygromycin as the resistance gene and the plasmid (SEQ ID NO:1) propagated using T-Rex-293 cells (Invitrogen; Cat No. R71007) following manufacturer's directions. On day 2, 2 μg of plasmid DNA plus 6 μl of Xtreme-GENE HP reagent in Optimem (200 μl total volume) was prepared and incubated for 15 min at room temperature. This plasmid solution was then gently overlayed dropwise onto each well and the plate was gently swirled to mix complex with the media for approximately 30 seconds. Transfected cells were incubated at 37° C. in a 10% CO2 incubator for 24 hrs. The transfected cells were harvested and transferred into 2×150 mm dishes containing cell growth media with no antibiotics at 37° C.
(§2) Compounds were made up to, or supplied as a 10 mM stock solution generally using DMSO as the vehicle. 10-point dose response curves were generated using the Echo-550 acoustic dispenser. Compound source plates were made by serially diluting compound stocks to create 10 mM, 1 mM, and 0.1 mM solutions in DMSO into Echo certified LDV plates. The Echo then serially spotted 100% DMSO stock solutions into source dose response plates to generate a 4-fold dilution scheme. 100% DMSO was added to the spotted dose response plates to bring the final volume to 5 μl. 300 nl of the dose response stock plate was then spotted into pre-incubation and stimulation assay plates. 50 μl of pre-incubation buffer and 100 μl of stimulation buffer was then added to the plates resulting in a final assay test concentration range of 30 μM to 0.0001 μM with a final DMSO concentration of 0.3%.
(§3) Human ICLN-1633 cells expressing were plated onto 384 well, black poly-D-lysine-coated microplates and maintained in TRPC5 growth media the day prior to use for experiments. TRPC5 expression was induced by the application of 1 μg/mL tetracycline at the time of plating. Media was removed from the plates and 10 μl of 4 μM of Fluo-4 AM (mixed with equal volume of Pluronic F-127) in Earls's Balanced Salt Solution (EBSS) was added to the cells. Cells were incubated at room temperature, protected from light, for 60-90 minutes. After the incubation period, the dye was removed and replaced with 10 μl of EBSS. Cell, pre-incubation and stimulation plates were loaded onto the FLIPR-II and the assay was initiated. The FLIPR measured a 10 second baseline and then added 10 μl of 2× compounds (or controls). Changes in fluorescence were monitored for an additional 5 minutes. After the 5 minute pre-incubation, 20 μl of 2× riluzole (with 1× compound or controls) was added to the cell plate. The final riluzole stimulation concentration in the assay was 30 μM. After the riluzole addition, changes in fluorescence were monitored for an additional 5 minutes. Reduction in the riluzole-activated calcium response relative to control wells was reported as inhibition. A compound-mediated increase in the riluzole response relative to control riluzole response (no test agent present) with no enhancement of calcium entry during preincubation phase was reported as an agonist response.
Compound inhibition of TRPC5 calcium response was determined as follows. After the riluzole addition, fluorescence was monitored for a 5-minute period. For inhibition, the maximum relative fluorescence response (minus the control response of 1 μM of an internal control compound known to maximally block TRPC5 calcium response, the “REF INHIB” in the formula below) was captured and exported from the FLIPR. […]

human TRPC5 [2] = molecular target: T1, human TRPC5; experiment: FLIPR calcium assay, compound activation (agonism) of TRPC5 calcium response; assay type: cell-based; set-up: key to Agonist Potency Range (FLIPR): A=0.001-1 μM; B=1-10 μM; C=>1 μM; D=tested with a positive result for agonism, but EC50 not calculated; conditions: ICLN-1633 cells, Fluo-4 calcium response; for EC50: read-out: Agonist Potency Range (FLIPR)
Procedure: as §1, §2, §3
Compound activation (agonism) of TRPC5 calcium response was determined as follows. After the initial compound addition, fluorescence was monitored for 5 minutes. The maximum relative fluorescence response (minus the control response of EBSS buffer alone) is captured and exported from the FLIPR. Compound activation is calculated using the following formula: […]

O=C1c2c(nc(Oc3cccc(OC(F)(F)F)c3)n2Cc2ccc(Cl)cc2)N2CCC[C@@H]2C(=O)N1CCCO (single isomer, unassigned) [Compound 23]
IC50 (human TRPC5 [1]): 1 to 1000 nM | EC50 (human TRPC5 [2]): > 10 µM

C[C@@H]1C(=O)N(C)c2nc(Oc3cccc(F)c3)n(Cc3ccc(Cl)cc3)c2C(=O)N1CCCO (single isomer, unassigned) [Compound 19]
IC50 (human TRPC5 [1]): > 10000 nM | Agonist Potency Range (FLIPR) (human TRPC5 [2]): D

CN1CC(=O)N(CCCO)C(=O)c2c1nc(Oc1cccc(OC(F)(F)F)c1)n2Cc1ccc(Cl)cc1 [Compound 21, 1-[(4-chlorophenyl)methyl]-7-(3-hydroxypropyl)-4-methyl-2-[3-(trifluoromethoxy)phenoxy]-1H,4H,5H,6H,7H,8H-imidazo[4,5-e][1,4]diazepine-6,8-dione]
IC50 (human TRPC5 [1]): 1 to 1000 nM | EC50 (human TRPC5 [2]): > 10 µM

O=C1c2c(nc(Oc3cccc(OC(F)(F)F)c3)n2Cc2ccc(Cl)cc2)N2CCC[C@H]2C(=O)N1CCCO (single isomer, unassigned) [Compound 22]
IC50 (human TRPC5 [1]): > 10000 nM | EC50 (human TRPC5 [2]): 1 to 10 µM
